Among the data in patent US10919885B2, “Compounds and uses thereof” (Yumanity Therapeutics, Inc., priority 2018, dated 2021) are IC50 values, retold here.

In test [1] the target is human SCD1 (Homo sapiens (Human), UniProt O00767). The experiment in a line: Yeast growth assay, strain expressing human SCD1 as the sole desaturase (reduced growth as surrogate for SCD inhibition). In kind it is cell-based. The settings on record: yeast with OLE1 deleted expressing human SCD1 from a plasmid; growth read as OD600 after 40 h at 30° C.; top drug concentration 33.3 μM. The essentials: (§1)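 Yeast lacking OLE1 depend on plasmid-borne human SCD1 or SCD5 and are tested in SD-Ura medium without oleic/palmitoleic acid or Tween.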
Sequence of human SCD1 (O00767 whole entry): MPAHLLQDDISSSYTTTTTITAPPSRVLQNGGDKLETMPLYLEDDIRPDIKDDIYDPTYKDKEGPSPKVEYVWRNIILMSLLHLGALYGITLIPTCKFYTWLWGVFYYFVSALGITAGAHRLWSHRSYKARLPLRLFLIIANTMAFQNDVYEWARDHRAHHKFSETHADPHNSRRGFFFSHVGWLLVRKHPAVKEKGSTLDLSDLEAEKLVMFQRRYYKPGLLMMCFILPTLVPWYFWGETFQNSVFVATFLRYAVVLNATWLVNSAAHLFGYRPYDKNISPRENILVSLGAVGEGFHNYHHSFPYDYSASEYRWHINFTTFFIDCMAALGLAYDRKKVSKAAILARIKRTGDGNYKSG

Test [2] has as its target human SCD5 (Homo sapiens (Human), UniProt Q86SK9). Nature of the test: Yeast growth assay, strain expressing human SCD5 as the sole desaturase (reduced growth as surrogate for SCD inhibition). The settings on record: yeast with OLE1 deleted expressing human SCD5 from a plasmid; growth read as OD600 after 40 h at 30° C.; top drug concentration 33.3 μM. The class given is cell-based. The essentials:
as §1

Sequence of human SCD5 (Q86SK9 whole entry): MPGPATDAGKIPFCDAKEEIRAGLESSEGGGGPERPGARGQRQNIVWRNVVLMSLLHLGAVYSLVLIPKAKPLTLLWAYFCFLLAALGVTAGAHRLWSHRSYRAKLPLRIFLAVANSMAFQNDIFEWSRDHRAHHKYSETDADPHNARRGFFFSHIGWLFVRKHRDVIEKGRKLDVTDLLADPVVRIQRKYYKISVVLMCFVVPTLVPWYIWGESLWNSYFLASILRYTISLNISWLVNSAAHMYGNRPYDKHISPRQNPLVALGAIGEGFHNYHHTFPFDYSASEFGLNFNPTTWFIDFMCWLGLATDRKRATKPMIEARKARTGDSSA

On to `CSCC(c1ccccc1)n1cc(NC(=O)c2cc(-c3ccccc3)on2)cn1` (stereo not drawn) [Compound 73], for which the IC50 in test [1] and in test [2] was above 45 µM throughout.

Take `CC(=O)N1CCN(c2cc(C(=O)Nc3cnn(Cc4ccccc4)c3)no2)CC1` [Compound 184]: the IC50 is 29 µM in test [1] and above 45 µM in test [2].

With `O=C(Nc1cnn(Cc2ccccc2)c1)c1cc(-c2ccc(F)cc2F)on1` [Compound 157], the IC50 in test [1] and in test [2] was above 45 µM in each case.

On to `O=C(c1cc(-c2ccc3c(c2)OCO3)on1)N1CCC(c2ccncc2)CC1` [Compound 293], for which the IC50 in test [1] and in test [2] was above 45 µM throughout.

Turning to `NC(=O)c1cc(C(=O)N2CCC(c3ccccc3)C2)no1` (stereo not drawn) [Compound 348], the IC50 is 7.61 µM in test [1] and above 45 µM in test [2].

Consider `O=C(Nc1cnn(Cc2ccccc2)c1)c1cc(-c2ccns2)on1` [Compound 126], for which the IC50 was 6.97 µM in test [1] and above 45 µM in test [2].

Turning to `COc1ccc(C2CCCN2C(=O)c2cc(-c3ccc(C(F)(F)F)cc3)on2)cc1` (stereo not drawn) [Compound 381], the IC50 in test [1] and in test [2] was above 45 µM throughout.

As to `N#Cc1ccc(-c2cc(C(=O)Nc3cnn(Cc4cc(F)ccc4C(F)(F)F)c3)no2)nc1` [Compound 99], the half-maximal inhibitory concentration (IC50) in test [1] and in test [2] was above 45 µM in each case.

Regarding `CC(C)(C)OC(=O)Nc1cc(C(=O)Nc2cnn(Cc3ccccc3)c2)no1` [Compound 181], the results for the IC50 in test [1] and in test [2] were 5.8 µM and above 45 µM, respectively.

Regarding `O=C(Nc1cnn(Cc2cc(F)ccc2C(F)(F)F)c1)c1cc(-c2ncccc2F)on1` [Compound 107], the IC50 in test [1] and in test [2] was above 45 µM in each case.

As to `O=C(c1cc(-c2ccco2)on1)N1CCC(c2ccccc2)C1` (stereo not drawn) [Compound 338], the figures for the IC50 in test [1] and in test [2] were above 45 µM and 2.79 µM, respectively.

With `O=C(Nc1cnn(Cc2ccc(Cl)c(Cl)c2)c1)c1cc(-c2ccco2)on1` [Compound 29], the IC50 in test [1] and in test [2] was above 45 µM each time.

`Cc1cnc(-c2cc(C(=O)Nc3cnn(Cc4ccccc4)c3)no2)s1` [Compound 142]: the half-maximal inhibitory concentration (IC50) in test [1] and in test [2] was above 45 µM throughout.

As for `CN(C)CCC(c1ccccc1)n1cc(NC(=O)c2cc(-c3ccccc3)on2)cn1` (stereo not drawn) [Compound 65], the IC50 in test [1] and in test [2] was above 45 µM each time.

For the compound `COc1ccc(-c2cc(C(=O)N3CC(c4cccc(F)c4)C3)no2)cc1OC` [Compound 236], the figures for the IC50 in test [1] and in test [2] were 3.33 µM and 1.55 µM, respectively.

Regarding `O=C(c1cc(-c2ccncc2)on1)N1CCC[C@H]1c1ccccc1` [Compound 409], the IC50 in test [1] is 23 µM; in test [2], above 45 µM.

For the compound `O=C(c1cc(-c2ccnnc2)on1)N1CCC[C@H]1c1ccccc1` [Compound 433], the IC50 was 36.8 µM in test [1] and above 45 µM in test [2].

For the compound `O=C(c1cc(-c2ccccc2)on1)N1CC(Nc2ccccc2)C1` [Compound 214], the IC50 in test [1] and in test [2] was above 45 µM each time.

Consider `O=C(NC1CCN(Cc2ccccc2)C1)c1cc(-c2ccco2)on1` (stereo not drawn) [Compound 337], for which the IC50 in test [1] and in test [2] was above 45 µM each time.

`COc1ccc(C2CCCN2C(=O)c2cc(-c3ccc(OC)c(F)c3)on2)cc1` (stereo not drawn) [Compound 382]: the figures for the IC50 in test [1] and in test [2] were 43.5 µM and above 45 µM, respectively.

`N#Cc1cccc(-c2cc(C(=O)Nc3cnn(Cc4ccccc4)c3)no2)c1` [Compound 127]: the IC50 in test [1] was 4.62 µM; in test [2] it was above 45 µM.

As to `Cc1cc(C2CCCN2C(=O)c2cc(-c3ccco3)on2)on1` (stereo not drawn) [Compound 357], the IC50 in test [1] and in test [2] was above 45 µM each time.

Consider `O=C(c1cc(-c2ccc3c(c2)OCO3)on1)N1CCN(c2ccc(F)cc2)CC1` [Compound 279], for which the IC50 in test [1] and in test [2] was above 45 µM throughout.

On to `Cn1nc(Cc2ccc(Cl)c(Cl)c2)cc1NC(=O)c1cc(-c2ccco2)on1` [Compound 27], for which the IC50 in test [1] and in test [2] was above 45 µM each time.

In general, IC50 refers to the concentration that gives 50% inhibition. Low readings indicate greater potency, high ones weaker potency.
